Laboratory results taken from patent US20060111556A1, “Preventives/remedies for neurodegenerative diseases” (priority 2002, published 2006).

What was measured:
[1] = system: neuronal cell death inducible putative kinase (NIPK) gene; experiment: NIPK gene expression analysis by oligonucleotide microarray after endoplasmic reticulum stress; assay type: cell-based; settings: rat primary nerve cells, medial expression level taken as 1
Procedure: Rat primary nerve cells prepared from CD rat (Charles River Japan, Inc.) of TP-17 were suspended in B27-supplemented Neurobasal medium (NB medium: GIBCO) charged in a type I collagen-coated 24-well plate and then plated at 250,000 cells/well, followed by culturing for 3 days.
(i) Tunicamycin (Tnc) was added to the culture cells above in a final concentration of 100 nM, (ii) thapsigargin (Thap) was added to the culture cells above in a final concentration of 2 nM, or (iii) the culture cells described above were cultured in glucose-free B27-suplemented DMEM medium with 2 medium changes and then 2-deoxyglucose (2DG) was added in 3 mM. The total RNA was extracted from the cells 4, 8 and 24 hours, respectively, in accordance with the operating manual using RNeasy Mini kit (Qiagen). Cells added to the respective media (drug-free cells) in place of the drugs above (Tnc, Thap and 2DG) were used for control. Using the oligonucleotide microarray (Rat Genome U34A; Affymetrix Corp.), gene expression analysis was conducted on these materials.
The experimental method was carried out in accordance with the expression analysis technical manual of Affymetrix Corp. Gene expression profiles were compared between the cells stimulated with each drug and the cells with no drug. […] (TABLE 1).

NIPK gene = NIPK gene expression analysis by oligonucleotide microarray after β amyloid stimulation; assay type: cell-based; settings: rat primary nerve cells, β amyloid 25 μM, 24 hours after stimulation, medial expression level taken as 1
Procedure: In order to examine if […] stimulation would affect the expression of NIPK gene with enhanced expression by endoplasmic reticulum stress, gene expression analysis was performed as in EXAMPLE 1, using cells stimulated with β amyloid.
Rat primary nerve cells prepared as in EXAMPLE 1 were suspended in N2-supplemented DMEM medium (GIBCO) and then plated at 250,000 cells/well, followed by incubation for 4 days. After the incubation, β amyloid suspended in the medium above in a final concentration of 25 μM was added to the medium. As in EXAMPLE 1, the total RNA was extracted from the cells 4, 8 and 24 hours after the addition and provided for gene analysis. For control, the cells to which the medium described above was added instead of β amyloid were used. Expression of NIPK was more enhanced in the cells stimulated with β, when compared to control (TABLE 2).

Akt1 = target: T1, Akt1 (Homo sapiens, UniProt P31749); experiment: Immunoprecipitation with anti-V5 antibody and western blotting with anti-Akt1 antibody; assay type: binding; settings: V5-tagged NIPK and Akt1 co-expressed in COS7 cells; control GFP and Akt1
T1 construct: expressed in transfected cells; host or cells: COS7 cells
Procedure: Using human NIPK cloned into pCDNA3.1-/V5-His TOPO (Invitrogen) vector (EXAMPLE 3) as a template, PCR was carried out with synthetic primers (SEQ ID NO: 3 and SEQ ID NO: 23) and Pfu turbo (Stratagene) as an enzyme under the conditions (1)-(3) to obtain the specific PCR product. • (1) 94° C. for 5 minutes • (2) 94° C. for 30 seconds—60° C. for 30 seconds—72° C. for 1 minute, 25 time • (3) 72° C. for 5 minutes
The PCR product obtained was cloned into pCDNA3.1-/V5-His TOPO (Invitrogen) to transfect Escherichia coli DH5α. The resulting colony was cultured in LB medium to recover V5-tagged human NIPK gene expression vector.
Akt1 gene expression vector was prepared by the following procedures. Using Quick-clone human whole brain cDNA (Clontech) as a template, PCR was carried out with synthetic primers (SEQ ID NO: 24 and SEQ ID NO: 25) and Pfu turbo (Stratagene) as an enzyme under the conditions (1)-(3) below to obtain the specific PCR product. • (1) 94° C. for 5 minutes • (2) 94° C. for 30 seconds—58° C. for 30 seconds—72° C. for 2 minutes, 35 times • (3) 72° C. for 5 minutes […]

T1 sequence (P31749 whole entry): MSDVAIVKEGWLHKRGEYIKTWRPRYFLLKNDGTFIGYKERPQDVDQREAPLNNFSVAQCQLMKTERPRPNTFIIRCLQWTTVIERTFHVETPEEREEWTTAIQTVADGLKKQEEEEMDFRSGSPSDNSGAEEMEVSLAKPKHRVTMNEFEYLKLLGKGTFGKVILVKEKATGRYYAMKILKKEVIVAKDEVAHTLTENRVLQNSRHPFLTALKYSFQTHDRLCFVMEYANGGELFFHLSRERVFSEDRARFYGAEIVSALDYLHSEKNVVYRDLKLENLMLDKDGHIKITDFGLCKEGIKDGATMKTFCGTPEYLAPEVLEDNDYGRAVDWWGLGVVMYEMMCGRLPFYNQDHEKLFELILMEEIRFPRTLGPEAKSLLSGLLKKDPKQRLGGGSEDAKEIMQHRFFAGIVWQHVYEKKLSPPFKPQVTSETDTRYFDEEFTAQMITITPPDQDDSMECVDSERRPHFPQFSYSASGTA

O=CC[C@@H](O)[C@H](O)[C@H](O)CO [2DG, 2-deoxyglucose]
Gene Expression Level ([1]; glucose-free medium, 2-deoxyglucose 3 mM, 4 hours after addition): 0.72
Gene Expression Level ([1]; glucose-free medium, 2-deoxyglucose 3 mM, 8 hours after addition): 1.79
Gene Expression Level ([1]; glucose-free medium, 2-deoxyglucose 3 mM, 24 hours after addition): 2.45

C/C=C(/C)C(=O)O[C@H]1C(C)=C2[C@H]([C@@H]1OC(=O)CCCCCCC)[C@@](C)(OC(C)=O)C[C@H](OC(=O)CCC)[C@@]1(O)[C@H]2OC(=O)[C@@]1(C)O [Thap, thapsigargin]
Gene Expression Level ([1]; thapsigargin 2 nM, 4 hours after stimulation): 0.93
Gene Expression Level ([1]; thapsigargin 2 nM, 8 hours after stimulation): 2.70
Gene Expression Level ([1]; thapsigargin 2 nM, 24 hours after stimulation): 1.64

Tunicamycin [Tnc]
Gene Expression Level ([1]; tunicamycin 100 nM, 4 hours after stimulation): 0.41
Gene Expression Level ([1]; tunicamycin 100 nM, 8 hours after stimulation): 1.64
Gene Expression Level ([1]; tunicamycin 100 nM, 24 hours after stimulation): 1.32

β amyloid
Gene Expression Level (NIPK gene): 0.34

B1: NIPK: human neuronal cell death inducible putative kinase, amino acid sequence SEQ ID NO: 1; V5-tagged, expressed in COS7 cells (protein)
chain: MRATPLAAPAGSLSRKKRLELDDNLDTERPVQKRARSGPQPRLPPCLLPLSPPTAPDRATAVATASRLGPYVLLEPEEGGRAYQALHCPTGTEYTCKVYPVQEALAVLEPYARLPPHKHVARPTEVLAGTQLLYAFFTRTHGDMHSLVRSRHRIPEPEAAVLFRQMATALAHCHQHGLVLRDLKLCRFVFADRERKKLVLENLEDSCVLTGPDDSLWDKHACPAYVGPEILSSRASYSGKAADVWSLGVALFTMLAGHYPFQDSEPVLLFGKIRRGAYALPAGLSAPARCLVRCLLRREPAERLTATGILLHPWLRQDPMPLAPTRSHLWEAAQVVPDGLGLDEAREEEGDREVVLYG
modifications: V5 tag; Homo sapience
notes: V5-tagged, expressed in COS7 cells
binding to Akt1 within the cells (Akt1): bound to Akt1
